Key:
L. donovani [1] = assay: Intramacrophage L. donovani assay; format: cell-based; settings: Leishmania donovani
Description: (§1) L. infantum (MHOM/MA/67/ITMAP263) and L. donovani (MHOM/ET/67/L82) were maintained in the golden (Syrian) hamster (Mesocricetus auratus). Ex vivo amastigotes were collected from the spleen of an infected donor hamster using two centrifugation purification steps: 230g for 10 min, keeping the supernatant layer, and 4100g for 30 min, keeping the pellet. The spleen parasite burden was assessed using the Stauber technique.[25] For in vitro assays, the inoculum was prepared in RPMI-1640 medium, supplemented with 200 mM L-glutamine, 16.5 mM NaHCO3, and 5% inactivated fetal calf serum. For the in vivo model, an infection inoculum containing 2 × 10^7 amastigotes/100 μL was prepared in phosphate-buffered saline (PBS).
The assay was performed in sterile 96-well microtiter plates, each well containing 10 μL of the compound dilution and 190 μL of the PMM/amastigote inoculum (3 × 10^4 cells/4.5 × 10^5 parasites per well). Parasite multiplication was compared to untreated infected controls (100% growth) and uninfected controls (0% growth). After five-day incubation, total parasite burdens were microscopically assessed after staining the cells with a 10% Giemsa solution. The results were expressed as a percentage reduction in parasite burden compared to untreated control wells. EC50 values were determined using an extended dose range (2-fold compound dilutions, 8-point concentration curve). Miltefosine was used as the reference drug.[26] For selected compounds, this assay format was also run using the L. donovani inoculum.

L. donovani [2] = assay: L. donovani hamster model of VL; format: in vivo
Description: as §1
Female golden hamsters for the in vivo model of visceral leishmaniasis were purchased from Janvier, France (body weight 80–100 g). This study using laboratory rodents was carried out in strict accordance with all mandatory guidelines (EU directives, including the Revised Directive 2010/63/EU on the protection of Animals used for Scientific Purposes that came into force on 01/01/2013, and the declaration of Helsinki in its latest version) and was approved by the ethical committee of the University of Antwerp, Belgium (UA-ECD 2011-74). Female golden hamsters for the pharmacokinetic study were purchased from Vital River, Beijing, China. This study was conducted following institutional review and in accordance with institutional and national guidelines at WuXi AppTec (the Institutional Animal Care and Use Committee (IACUC)). Balb/c mice for the in vivo model of visceral leishmaniasis (LSHTM) were purchased from Charles River, U.K., and related studies were conducted under license PPL 70/8427 from the U.K. Home Office.
Female golden hamsters were randomly allocated to experimental groups of six animals each, based on body weight. At the start of the experiment (Day 0), each animal was infected with L. infantum or L. donovani inoculum, delivered by intracardial injection. Six hamsters were assigned to the vehicle-treated, infected control group. Six hamsters were assigned per group (1 group/compound) for the evaluation of compound and miltefosine. At Day 21 postinfection (21 dpi), all animals in each group were dosed orally for five (or ten) consecutive days (21–25 dpi): compound was dosed at 25–50 mg/kg b.i.d.; miltefosine was dosed at 40 mg/kg q.d. At Day 35 (10 days after the final oral dose), all animals were euthanized and autopsies were conducted. The study evaluated the following parameters. • 1. Adverse effects: all animals were observed daily for the occurrence/presence of adverse effects. • 2. Body weight: all animals were weighed twice per week to monitor general health. • 3. Parasite burden: amastigote burdens in each target organ (liver, spleen, and bone marrow) were determined at Day 35. The organs of individual animals were weighed (except for bone marrow). Impression smears were stained with Giemsa for microscopic examination of the total amastigote burden, defined as the mean number of amastigotes per cell multiplied by the number of cells counted (minimum 500 nuclei); the results were expressed as a percentage reduction in amastigote burden compared to vehicle-treated, infected control animals.

[3] = Hamster oral pharmacokinetic study; format: in vivo, golden Syrian hamsters; settings: female, golden Syrian, plasma, single p.o. dose 50 mg/kg, read-out: AUC0–24 after single p.o. dose of 50 mg/kg
Description: […] The K2-EDTA anticoagulant was added to blood samples collected from 0.25 to 36 h, which were processed to plasma and stabilized with phosphoric acid (1% final) before analysis by LC-MS/MS. PK parameters were calculated using WinNonlin software (version 6.3).

PMM cytotoxicity assay = format: cell-based; settings: mouse, primary peritoneal mouse macrophages (PMM)
Summary of the method: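 PMM (harvested 2 days after 2% potato starch peritoneal stimulation) or MRC5SV2 human lung fibroblasts at 3 × 10^4 cells/mL were exposed to compound for three days at 37 °C, 5% CO2. Viability was read by resazurin fluorescence (λex 550, λem 590 nm) after 4 h, as % growth reduction vs untreated controls.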

[4] = Liver microsome stability, hamster; format: in vitro ADME; settings: golden (Syrian), hamster liver microsomes, pH 7.4, Table 5, read-out: HamLM Clint
Description: Tests were performed by WuXi AppTec, China. Test compounds (at 1 μM) or positive controls (testosterone, propafenone, and diclofenac) were incubated at 37 °C with liver microsomes from Balb/c mouse, golden (Syrian) hamster, Sprague-Dawley rat, Beagle dog, or human in the presence of a NADPH regenerating system and phosphate buffer (100 mM, pH 7.4) at 0.4 or 0.8 mg/mL microsomal protein. The samples were removed at time intervals from 0 to 60, 90, or 120 min and immediately mixed with cold methanol supplemented or not with acid (3% formic acid) and centrifuged prior to analysis by LC-MS/MS using tolbutamide or propranolol as internal standards.

L. donovani [5] = assay: L. donovani mouse model of VL; format: in vivo
Description: Female BALB/c mice were infected with 2 × 10^7L. donovani amastigotes/0.2 mL i.v. harvested from the spleen of an infected donor RAG1B6 mouse (LSHTM). After 7 days, the mice were treated with miltefosine or DNDI-6148 for 5 consecutive days. Five days after the final dose, mice were humanely killed, liver and spleens were dissected and weighed, and impression smears were made for the calculation of parasite burden (Stauber equation).[25]

[6] = Liver microsome stability, human; format: in vitro ADME; settings: for microsomal CLint at 1 μM: human liver microsomes, pH 7.4, Table 5, read-out: HLM Clint
Summary of the method: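 Compounds at 1 μM incubated at 37 °C with liver microsomes (Balb/c mouse, golden Syrian hamster, Beagle dog, human) plus NADPH regenerating system in 100 mM phosphate buffer pH 7.4, 0.4 or 0.8 mg/mL protein. Samples taken from 0 up to 60, 90 or 120 min, quenched in cold methanol and analysed by LC-MS/MS.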

[7] = Table 2, geometric mean of at least three independent assays
[8] = Table 5, geometric mean of at least two independent tests
[9] = Table 6, geometric mean of at least two independent tests

Cc1c(C(=O)Nc2ccc3c(c2)B(O)OC3)nnn1-c1ccccn1 [Compound 23, N-(1-Hydroxy-1,3-dihydrobenzo[c][1,2]oxaborol-6-yl)-5-methyl-1-(pyridin-2-yl)-1H-1,2,3-triazole-4-carboxamide]
EC50 (L. donovani [1]; [7]): 1.4 µM | reduction in parasite burden, bone marrow, 10 days (L. donovani [2]; 25 mg/kg BID for 10 days): 99.6% | reduction in parasite burden, liver, 10 days (L. donovani [2]; 25 mg/kg BID for 10 days): 99.9% | reduction in parasite burden, spleen, 10 days (L. donovani [2]; 25 mg/kg BID for 10 days): 99.8% | reduction in parasite burden, bone marrow, 5 days (L. donovani [2]; 50 mg/kg BID for 5 days): 83.4% | reduction in parasite burden, liver, 5 days (L. donovani [2]; 50 mg/kg BID for 5 days): 99.3% | reduction in parasite burden, spleen, 5 days (L. donovani [2]; 50 mg/kg BID for 5 days): 98.6% | AUC(0-t) [3]: 120000 ng·h/mL | EC50 at 3 days (PMM cytotoxicity assay; [7]): > 64 µM | CC50 at 3 days (PMM cytotoxicity assay; [8]): > 64 µM | microsomal CLint at 1 μM [4]: < 11.9 µL/min/mg | reduction in liver parasite burden following 5 days of p.o. dosing BID, L. donovani (L. donovani [5]; 25 mg/kg BID): 97.1% | reduction in liver parasite burden following 5 days of p.o. dosing BID, L. donovani (L. donovani [5]; 50 mg/kg BID): 99.7% | microsome Clint ([6]; Table 10): <11.9 μL/min/mg protein | microsomal CLint at 1 μM [6]: < 11.9 µL/min/mg

Cc1c(-c2ccccn2)coc1C(=O)Nc1ccc2c(c1)B(O)OC2 [Compound 28, N-(1-Hydroxy-1,3-dihydrobenzo[c][1,2]oxaborol-6-yl)-3-methyl-4-(pyridin-2-yl)furan-2-carboxamide]
EC50 (L. donovani [1]; [9]): 0.4 µM | reduction in parasite burden, bone marrow, 5 days (L. donovani [2]; 25 mg/kg BID for 5 days): 94.5% | reduction in parasite burden, liver, 5 days (L. donovani [2]; 25 mg/kg BID for 5 days): 95.9% | reduction in parasite burden, spleen, 5 days (L. donovani [2]; 25 mg/kg BID for 5 days): 95.9% | reduction in parasite burden, bone marrow, 5 days (L. donovani [2]; 50 mg/kg BID for 5 days): 100% | reduction in parasite burden, liver, 5 days (L. donovani [2]; 50 mg/kg BID for 5 days): 99.9% | reduction in parasite burden, spleen, 5 days (L. donovani [2]; 50 mg/kg BID for 5 days): 100% | AUC(0-t) [3]: 21000 ng·h/mL | CC50 at 72 h (PMM cytotoxicity assay; [8]): 49 µM | CC50 at 3 days (PMM cytotoxicity assay; [9]): 54 µM | microsomal CLint at 2 h, 1 µM [4]: 40 µL/min/mg | reduction in liver parasite burden following 5 days of p.o. dosing BID, L. donovani (L. donovani [5]; 25 mg/kg BID): 97.5% | reduction in liver parasite burden following 5 days of p.o. dosing BID, L. donovani (L. donovani [5]; 50 mg/kg BID): 99.5% | microsomal CLint at 1 μM [6]: < 11.9 µL/min/mg

— paper PMC8591608, “DNDI-6148: A Novel Benzoxaborole Preclinical Candidate for the Treatment of Visceral Leishmaniasis” (Journal of Medicinal Chemistry, 2021)
